Test results as given in patent US20260317313A1, “DNA Polymerase Theta Inhibitors Containing Non-Saturated 5-Membered Heterocyclic Rings and Use Thereof” (Thomas Jefferson University, priority 2022, published 2026).
pIC50: −log10 of the molar value. Like-named read-outs stand apart in the source and are kept apart here.

Target: T1, recombinant human Polq polymerase domain (residues 1792-2590) (Homo sapiens, UniProt O75417)
T1 sequence (O75417 1792-2590): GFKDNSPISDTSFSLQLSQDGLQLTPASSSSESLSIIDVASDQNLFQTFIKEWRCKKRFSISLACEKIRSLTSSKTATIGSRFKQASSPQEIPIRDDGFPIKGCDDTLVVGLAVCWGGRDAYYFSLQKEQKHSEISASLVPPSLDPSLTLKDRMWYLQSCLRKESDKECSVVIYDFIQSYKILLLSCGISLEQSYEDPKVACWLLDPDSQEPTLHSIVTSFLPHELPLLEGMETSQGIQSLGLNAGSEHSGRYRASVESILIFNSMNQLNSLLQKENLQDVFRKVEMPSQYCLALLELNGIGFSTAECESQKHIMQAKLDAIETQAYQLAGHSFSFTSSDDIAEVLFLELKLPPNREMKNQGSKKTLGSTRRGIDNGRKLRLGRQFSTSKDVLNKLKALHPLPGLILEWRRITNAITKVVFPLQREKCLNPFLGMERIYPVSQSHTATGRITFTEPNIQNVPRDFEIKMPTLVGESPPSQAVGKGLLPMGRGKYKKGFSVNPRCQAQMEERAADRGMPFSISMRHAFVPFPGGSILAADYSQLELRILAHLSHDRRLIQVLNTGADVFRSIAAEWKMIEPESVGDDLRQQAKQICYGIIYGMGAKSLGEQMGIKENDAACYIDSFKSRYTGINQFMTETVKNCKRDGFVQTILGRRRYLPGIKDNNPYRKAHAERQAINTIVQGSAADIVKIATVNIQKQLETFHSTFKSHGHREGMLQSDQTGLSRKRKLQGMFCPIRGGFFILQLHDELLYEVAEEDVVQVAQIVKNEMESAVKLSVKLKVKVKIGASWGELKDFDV
Assay: Cy5 fluorescence assay of Polq polymerase enzymatic activity
Assay type: biochemical
Details: 60 nM primer-template, 50 uM dNTPs, 37° C., 18 min, 2.5% DMSO, triplicate
Description: The following Cy5 fluorescence assay was used to measure the ability of compounds to inhibit Polq polymerase domain in vitro. The fluorescent based assay was performed as follows: 60 nM of the pre-annealed primer-template containing a 5′ Cy5 fluorophore conjugated template strand (SEQ ID NO 6: 5′-/5Cy5/ […] GGACAG-3′), a downstream complementary oligo conjugated with a 3′ Blackhole quencher (SEQ ID NO 7: 5′-CTAAGCTCACAGTG/3IAbRQSp/-3′) and a primer strand (SEQ ID NO 8: 5′-CTGTCCTGCATGATG-3′) was mixed with 50 uM 2′-deoxyribonucleoside triphosphates (dNTPs), 0.1 mg/mL Bovine serum albumin (BSA), 0.01% NP-40, 10% glycerol, 1 mM dithiothreitol (DTT), 10 mM MgCl2, 25 mM TrisHCl pH 7.8 in the presence of 2.5% DMSO with or without various concentrations (7-point dilution series) of Polq small molecule inhibitors represented by Formula I at 37° C. in a volume of 40 μL.

[1] = Polq IC50, 5 nM Polq polymerase domain
[2] = 5 nM Polq polymerase domain, read-out: Polq IC50

Row | SMILES | pIC50 [1] | also measured
1 | [2H]C([2H])([2H])N(C(=O)Oc1c(-c2cn(C3C[C@@H](O)[C@@H](O)C3)nn2)cc(C(F)(F)F)cc1C(F)(F)F)c1ccc(F)cc1 (mixture of isomers) [Example 12, 2-{1-[(3R,4S)-3,4-dihydroxycyclopentyl]-1H-1,2,3-triazol-4-yl}-4,6-bis(trifluoromethyl)phenyl N-(4-fluorophenyl)-(methyl-d3)carbamate (Racemate)] | 8.66 | –
2 | [2H]C([2H])([2H])N(C(=O)Oc1c(-c2cn(C3C[C@@H](O)[C@@H](O)C3)nn2)cc(C(F)(F)F)cc1C(F)(F)F)c1ccc(F)cc1 (mixture of isomers) [Example 13, 2-{1-[(3R,4S)-3,4-dihydroxycyclopentyl]-1H-1,2,3-triazol-4-yl}-4,6-bis(trifluoromethyl)phenyl N-(4-fluorophenyl)-(methyl-d3)carbamate (Racemate)] | 8.34 | –
3 | CN(C(=O)Oc1c(-c2cn(CCO)nn2)cc(C(F)(F)F)cc1C(F)(F)F)c1ccc(F)cc1 [Example 1] | – | pIC50 (5 nM Polq polymerase domain): 8.32
4 | CN(C(=O)Oc1c(-n2cc[nH]c2=O)cc(C(F)(F)F)cc1C(F)(F)F)c1ccc(F)cc1 [Example 2, 2-(2-oxo-2,3-dihydro-1H-imidazol-1-yl)-4,6-bis(trifluoromethyl)phenyl N-(4-fluorophenyl)-N-methylcarbamate] | 8.40 | –
5 | CN(C(=O)Oc1c(-c2cn(CCCCC(=O)Nc3cccc4c3C(=O)N(C3CCC(=O)NC3=O)C4=O)nn2)cc(C(F)(F)F)cc1C(F)(F)F)c1ccc(F)cc1 (stereo not drawn) [Example 3, 2-(1-(5-((2-(2,6-dioxopiperidin-3-yl)-1,3-dioxoisoindolin-4-yl)amino)-5-oxopentyl)-1H-1,2,3-triazol-4-yl)-4,6-bis(trifluoromethyl)phenyl (4-fluorophenyl) (methyl)carbamate] | 8.48 | –
6 | CN(C(=O)Oc1c(-c2cn(CCCCCC(=O)Nc3cccc4c3C(=O)N(C3CCC(=O)NC3=O)C4=O)nn2)cc(C(F)(F)F)cc1C(F)(F)F)c1ccc(F)cc1 (stereo not drawn) [Example 4, 2-(1-(6-((2-(2,6-dioxopiperidin-3-yl)-1,3-dioxoisoindolin-4-yl)amino)-6-oxohexyl)-1H-1,2,3-triazol-4-yl)-4,6-bis(trifluoromethyl)phenyl (4-fluorophenyl) (methyl)carbamate] | 8.26 | –
7 | CN(C(=O)Oc1c(-c2cn(CCOCC(=O)Nc3cccc4c3C(=O)N(C3CCC(=O)NC3=O)C4=O)nn2)cc(C(F)(F)F)cc1C(F)(F)F)c1ccc(F)cc1 (stereo not drawn) [Example 5, 2-(1-(2-(2-((2-(2,6-dioxopiperidin-3-yl)-1,3-dioxoisoindolin-4-yl)amino)-2-oxoethoxy)ethyl)-1H-1,2,3-triazol-4-yl)-4,6-bis(trifluoromethyl)phenyl (4-fluorophenyl) (methyl)carbamate] | 8.34 | –
8 | CN(C(=O)Oc1c(-c2cn(CCOCCOCC(=O)Nc3cccc4c3C(=O)N(C3CCC(=O)NC3=O)C4=O)nn2)cc(C(F)(F)F)cc1C(F)(F)F)c1ccc(F)cc1 (stereo not drawn) [Example 6, 2-(1-(2-(2-(2-((2-(2,6-dioxopiperidin-3-yl)-1,3-dioxoisoindolin-4-yl)amino)-2-oxoethoxy)ethoxy)ethyl)-1H-1,2,3-triazol-4-yl)-4,6-bis(trifluoromethyl)phenyl (4-fluorophenyl)(methyl)carbamate] | 8.40 | –
9 | CN(C(=O)Oc1c(-c2cn(CCCCCCCCC(=O)Nc3cccc4c3C(=O)N(C3CCC(=O)NC3=O)C4=O)nn2)cc(C(F)(F)F)cc1C(F)(F)F)c1ccc(F)cc1 (stereo not drawn) [Example 7, 2-(1-(9-((2-(2,6-dioxopiperidin-3-yl)-1,3-dioxoisoindolin-4-yl)amino)-9-oxononyl)-1H-1,2,3-triazol-4-yl)-4,6-bis(trifluoromethyl)phenyl (4-fluorophenyl) (methyl)carbamate] | 8.24 | –
10 | CN(C(=O)Oc1c(-c2cn(CCOCCOCCOCCOCC(=O)Nc3cccc4c3C(=O)N(C3CCC(=O)NC3=O)C4=O)nn2)cc(C(F)(F)F)cc1C(F)(F)F)c1ccc(F)cc1 (stereo not drawn) [Example 8, 2-(1-(14-((2-(2,6-dioxopiperidin-3-yl)-1,3-dioxoisoindolin-4-yl)amino)-14-oxo-3,6,9,12-tetraoxatetradecyl)-1H-1,2,3-triazol-4-yl)-4,6-bis(trifluoromethyl)phenyl (4-fluorophenyl) (methyl)carbamate] | 8.38 | –
11 | [2H]C([2H])([2H])N(C(=O)Oc1c(-n2cc[nH]c2=O)cc(C(F)(F)F)cc1C(F)(F)F)c1ccc(F)c(Cl)c1F [Example 9, 2-(2-oxo-2,3-dihydro-1H-imidazol-1-yl)-4,6-bis(trifluoromethyl)phenyl 3-chloro-2,4-difluorophenyl(methyl-d3)carbamate] | 8.62 | –
12 | [2H]C([2H])([2H])N(C(=O)Oc1c(-n2cc[nH]c2=O)cc(C(F)(F)F)cc1C(F)(F)F)c1ccc(F)cc1 [Example 10, 2-(2-oxo-2,3-dihydro-1H-imidazol-1-yl)-4,6-bis(trifluoromethyl)phenyl 4-fluorophenyl(methyl-d3)carbamate] | 8.54 | –
13 | CN(C(=O)Oc1c(-c2cn(C3CC(O)C3)nn2)cc(C(F)(F)F)cc1C(F)(F)F)c1ccc(F)cc1 (stereo not drawn) [Example 11, 2-[1-(3-hydroxycyclobutyl)-1H-1,2,3-triazol-4-yl]-4,6-bis(trifluoromethyl)phenyl N-(4-fluorophenyl)-N-methylcarbamate] | 8.70 | –
14 | CN(C(=O)Oc1c(-c2cn(CC3(O)CNC3)nn2)cc(C(F)(F)F)cc1C(F)(F)F)c1ccc(F)cc1 [Example 14, 2-{1-[(3-hydroxyazetidin-3-yl)methyl]-1H-1,2,3-triazol-4-yl}-4,6-bis(trifluoromethyl)phenyl N-(4-fluorophenyl)-N-methylcarbamate] | 8.64 | –
15 | [2H]C([2H])([2H])N(C(=O)Oc1c(-c2cn(CC3(O)CNC3)nn2)cc(C(F)(F)F)cc1C(F)(F)F)c1ccc(F)cc1 [Example 15, 2-{1-[(3-hydroxyazetidin-3-yl)methyl]-1H-1,2,3-triazol-4-yl}-4,6-bis(trifluoromethyl)phenyl N-(4-fluorophenyl)-N-(methyl-d3)carbamate] | 8.72 | –
16 | [2H]C([2H])([2H])N(C(=O)Oc1c(-c2cn(CC3(O)CNC3)nn2)cc(C(F)(F)F)cc1C(F)(F)F)c1ccc(F)c(Cl)c1F [Example 16, 2-{1-[(3-hydroxyazetidin-3-yl)methyl]-1H-1,2,3-triazol-4-yl}-4,6-bis(trifluoromethyl)phenyl N-(3-chloro-2,4-difluorophenyl)-N-(methyl-d3)carbamate] | 8.82 | –
17 | CN(C(=O)Oc1c(-c2cn(C3CC(O)C3)nn2)cc(C(F)(F)F)cc1C(F)(F)F)c1ccc(F)cc1 (stereo not drawn) [Example 17, 2-[1-(3-hydroxycyclobutyl)-1H-1,2,3-triazol-4-yl]-4,6-bis(trifluoromethyl)phenyl N-(4-fluorophenyl)-N-methylcarbamate] | – | pIC50 [2]: 8.82
18 | CC(C)(C)OC(=O)n1ccn(-c2cc(C(F)(F)F)cc(C(F)(F)F)c2OC(=O)N(CC#N)c2ccc(F)cc2)c1=O [Example 19, tert-butyl 3-(2-{[(cyanomethyl)(4-fluorophenyl)carbamoyl]oxy}-3,5-bis(trifluoromethyl)phenyl)-2-oxo-2,3-dihydro-1H-imidazole-1-carboxylate] | – | pIC50 [2]: 6.53
19 | N#CCN(C(=O)Oc1c(-n2cc[nH]c2=O)cc(C(F)(F)F)cc1C(F)(F)F)c1ccc(F)cc1 [Example 20, 2-(2-oxo-2,3-dihydro-1H-imidazol-1-yl)-4,6-bis(trifluoromethyl)phenyl N-(cyanomethyl)-N-(4-fluorophenyl)carbamate] | – | pIC50 [2]: 6.36
20 | [2H]C([2H])([2H])N(C(=O)Oc1c(-c2nnn[nH]2)cc(C(F)(F)F)cc1C(F)(F)F)c1ccc(F)cc1 [Example 21, 2-(1H-1,2,3,4-tetrazol-5-yl)-4,6-bis(trifluoromethyl)phenyl N-(4-fluorophenyl)-N-(methyl-d3)carbamate] | 8.49 | –
21 | [2H]C([2H])([2H])N(C(=O)Cc1c(-c2cnn(C(=O)OC(C)(C)C)c2)cc(C(F)(F)F)cc1C(F)(F)F)c1ccc(F)cc1 [Example 22, Tert-butyl 4-(2-{[(4-fluorophenyl)(methyl-d3)carbamoyl]methyl}-3,5-bis(trifluoromethyl)phenyl)-1H-pyrazole-1-carboxylate] | – | pIC50 [2]: 7.61
